Assay results: article doi:10.1101/2025.03.20.644389, “In vivo validation of the palmitoylation cycle as a therapeutic target in NRAS-mutant cancer” (bioRxiv, 2025)

Target: T1, ABHD17B (Homo sapiens, UniProt Q5VST6)
T1 construct: hABHD17B recombinantly expressed in HEK293T cells (membrane proteome)
T1 sequence (Q5VST6 1-288): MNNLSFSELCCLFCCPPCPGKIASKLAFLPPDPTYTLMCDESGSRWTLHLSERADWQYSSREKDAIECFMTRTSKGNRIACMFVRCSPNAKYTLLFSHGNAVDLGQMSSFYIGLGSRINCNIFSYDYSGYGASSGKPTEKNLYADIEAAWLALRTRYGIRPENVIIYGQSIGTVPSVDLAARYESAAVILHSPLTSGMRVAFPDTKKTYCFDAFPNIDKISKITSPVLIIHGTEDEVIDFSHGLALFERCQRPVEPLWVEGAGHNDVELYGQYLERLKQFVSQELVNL
Experiment: competitive gel-based ABPP with FP-Rh in transfected HEK293T membrane proteome
Format: biochemical

IC50: 76 nM
Substance: ABD778
